Several values for one entry are separate records, joined by “and”; a condition that tells them apart may be missing. Equal values may be shown once.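 Cultured in 96-well plates, cells were exposed to test compound for 48 hours across five concentrations. GI50: concentration for 50% inhibition of growth. TGI marks complete inhibition of growth.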
Legend:
Experiment in all cases: NCI anticancer screen, dose series, 48 h
K-562 leukemia = test system: K-562 leukemia
MALME-3M melanoma = test system: MALME-3M melanoma
MOLT-4 leukemia = test system: MOLT-4 leukemia
COLO 205 colon = test system: COLO 205 colon
U251 CNS = test system: U251 CNS
HCT-116 colon = test system: HCT-116 colon
EKVX NSCLC = test system: EKVX NSCLC
NCI-H226 lung = test system: NCI-H226 lung
UO-31 renal = test system: UO-31 renal
UACC-257 melanoma = test system: UACC-257 melanoma

Compound | GI50 (K-562 leukemia) [µM] | TGI (K-562 leukemia) | GI50 (MALME-3M melanoma) [µM] | TGI (MALME-3M melanoma) [µM] | GI50 (MOLT-4 leukemia) [µM] | TGI (MOLT-4 leukemia) | GI50 (COLO 205 colon) [µM] | TGI (COLO 205 colon) | GI50 (U251 CNS) [µM] | TGI (U251 CNS) | GI50 (HCT-116 colon) [µM] | TGI (HCT-116 colon) | GI50 (EKVX NSCLC) [µM] | TGI (EKVX NSCLC) | GI50 (NCI-H226 lung) [µM] | TGI (NCI-H226 lung) | GI50 (UO-31 renal) [µM] | TGI (UO-31 renal) [µM] | GI50 (UACC-257 melanoma) [µM] | TGI (UACC-257 melanoma) [µM]
Cc1cc2c(cc1C)N(C(=O)CCl)CCN2C(=O)CCl | 0.378 | 2 µM | 1.57 | 4.5 | 0.367 | 1.74 µM | 0.484 | 1.02 µM | 1.39 | 2.88 µM | 0.186 | 0.409 µM | 1.99 | 4.64 µM | 0.559 | 1.8 µM | 1.52 | 3.48 | 1.3 | 2.71
O=C1NC(=S)S/C1=C(/C=C(\CC(=O)c1ccccc1)c1ccc(Cl)cc1)c1ccccc1 | 15.3 | > 100 µM | 39.9 | > 100 | 19.5 | 51.6 µM | 32.5 | > 100 µM | 30.9 | > 100 µM | 31.8 | > 100 µM | 33.6 | > 100 µM | 28.5 | 90.4 µM | 48.6 | > 100 | 21.9 | 61.8
Cc1sc2nc3c4ccccc4c(NCCCN(C)C)nn3c(=O)c2c1C | 1.93 | 3.9 µM | 1.97 | 4.96 | 0.782 | 3.38 µM | 1.43 | 2.79 µM | 6.66 | 20 µM | 4.03 | 12.7 µM | 15.7 | 35.8 µM | 5.26 | 23.1 µM | 3.13 | 16.7 | 2.22 | 4.79
CC(CCC(=O)O)C(=O)O (configuration not stated) | – | > 100 µM | – | > 100 | – | > 100 µM | – | > 100 µM | – | > 100 µM | – | > 100 µM | – | > 100 µM | – | > 100 µM | – | > 100 | – | > 100
Cc1ccc2nc(-c3ccc(N(C)C)c(Br)c3)cn2c1 | 2.93 | > 100 µM | > 100 | > 100 | 3.99 | > 100 µM | > 100 | > 100 µM | 7.19 | > 100 µM | 7.13 | > 100 µM | > 100 | > 100 µM | > 100 | > 100 µM | > 100 | > 100 | > 100 | > 100
COc1ccc(C2=NN(C=O)C(c3cccc(Nc4ccnc5cc(Cl)ccc45)c3)C2)cc1 (configuration not stated) | 0.511 | 11.3 µM | 2.04 | 18.9 | 2.37 | 11.9 µM | 2.4 | 9.88 µM | 2.77 | 14.4 µM | 1.84 | 6.02 µM | 2.8 | > 100 µM | 3.13 | > 100 µM | 3.25 | 64.6 | 3.06 | 28.5
C/C(CCc1ccccc1)=N\NC(N)=S | – | > 100 µM | – | > 100 | – | > 100 µM | – | > 100 µM | – | > 100 µM | – | > 100 µM | – | > 100 µM | – | > 100 µM | – | > 100 | – | > 100
O=C(O)c1ccc2c(c1)CCCC(c1ccc(Cl)cc1Cl)=C2c1ccc(O[C@H]2CCN(CCCF)C2)cc1 | 8.05 | 23.1 µM | 14.7 | 35.4 | 8.62 | 24.2 µM | 14.9 | 33.7 µM | 10.1 | 25.2 µM | 7.98 | 21.7 µM | 10.7 | 25.3 µM | 10.4 | 38.8 µM | 9.76 | 25.6 | 14.1 | 30
C=C1C(=O)O[C@H]2[C@H]1CC/C(COC(=O)c1cc3cc(Cl)ccc3[nH]1)=C\CC[C@@]1(C)O[C@@H]21 | 1.14 | 4.14 µM | 1.63 | 3.33 | 0.557 | 3.37 µM | 1.72 | 3.7 µM | 1.75 | 3.32 µM | 0.707 | 2.06 µM | 1.4 | 2.91 µM | 1.8 | 3.72 µM | 1.21 | 2.56 | 1.7 | 3.2
CC[C@]1(O)C(=O)OCc2c1cc1n(c2=O)Cc2cc3c(N)cccc3nc2-1 | – | > 100 µM | – | > 100 | – | > 100 µM | – | > 100 µM | – | > 100 µM | – | > 100 µM | – | > 100 µM | – | > 100 µM | – | > 100 | – | > 100
N#CCCN(CCC#N)c1ccc(C(Sc2ccccc2)C(NC(=O)c2cc([N+](=O)[O-])ccc2Cl)C(=O)Sc2ccccc2)cc1 (configuration not stated) | 1.71 | 7.42 µM and 6.69 µM | – | 22 | 0.565 | 2.56 µM and 2.95 µM | 2.9 | 6.75 µM and 7.77 µM | – | 4.15 µM and 6.01 µM | 1.85 | 5.51 µM and 5.62 µM | 5.74 | 9.96 µM and 25.5 µM | – | 5.16 µM and 5.01 µM | 1.11 | 4.77 | 3.06 | 14.3
CCn1c(-c2nonc2N)nc2c(C#CC(C)(C)O)nc(OCCNC)cc21 | 10.3 | > 25 µM | 7.69 | 20.6 | 8.68 | > 25 µM | 4.84 | 10.3 µM | 6.5 | > 25 µM | 7.14 | > 21.6 µM | > 18.3 | > 25 µM | 8.09 | > 23.1 µM | 8.9 | > 25 | 7.96 | 24.7
COc1ccc2cc(-c3c(-c4ccncc4)nc(-c4ccc(S(C)(=O)=O)cc4C)n3C)ccc2c1 | 6.88 | > 25 µM | 4.9 | > 25 | 6.91 | > 25 µM | 8.25 | > 20.1 µM | 11.2 | > 25 µM | 7.62 | > 25 µM | 7.45 | > 25 µM | 4.17 | > 20.4 µM | 4.4 | 20.2 | 7.75 | > 25
Fc1cc2[nH]ncc2c2c3c(c(-c4cn[nH]c4C(F)(F)F)nc12)C1CCC3C1 (configuration not stated) | 1.61 | > 50 µM | 1.45 | 4.85 | 0.99 | 4.31 µM | 0.874 | 2.24 µM | 1.4 | 5.09 µM | 0.642 | 5.55 µM | 1.39 | 5.91 µM | 0.926 | 4.72 µM | 0.767 | 1.97 | 1.31 | 4.51
O=C1c2cc(Cl)ccc2-c2c1c1ccc([N+](=O)[O-])cc1c(=O)n2CCCBr | 4.46 | > 100 µM | 9.32 | 82 | 1.84 | 8.04 µM | 3.37 | > 100 µM | 3.07 | > 100 µM | 3.48 | > 100 µM | > 100 | > 100 µM | 11.5 | > 100 µM | 2.64 | 31 | 41.4 | > 100
COC(=O)[C@]12CCC(C)[C@H](C)[C@H]1C1=CCC3[C@@]4(C)CC[C@H](OC(C)=O)C(C)(C)C4CC[C@@]3(C)C1(C)C(O)C2 (some centres not stated) | – | > 100 µM | – | > 100 | – | > 100 µM | – | > 100 µM | – | > 100 µM | – | > 100 µM | – | > 100 µM | – | 83.1 µM | – | > 100 | – | > 100
Cc1ccc(-c2csc(NC(=O)CN3CCN(c4cc5c(cc4F)c(=O)c(C(=O)O)cn5C4CC4)CC3)n2)cc1 | 0.771 | > 100 µM | 1.75 | 7.14 | 1.23 | > 100 µM | 1.66 | 3.75 µM | 0.388 | 13.4 µM | 0.348 | 14.8 µM | 1.53 | 23.9 µM | 2.51 | 9.41 µM | 1.04 | 41.1 | 1.91 | 6.18
C/C=C/C=C/C=C/C=C/C(=O)O | – | > 100 µM | – | > 100 | – | > 100 µM | – | > 100 µM | – | > 100 µM | – | > 100 µM | – | > 100 µM | – | > 100 µM | – | > 100 | – | > 100
NC(=O)c1cc2c3ccccc3ccn2c1-c1ccccc1 | 0.12 | 11.8 µM | 16.7 | 47.9 | 0.521 | 15.9 µM | 0.454 | 2.31 µM | 0.0475 | 14.2 µM | 0.0428 | 4.22 µM | 0.396 | 45.3 µM | 0.627 | 25.7 µM | 0.708 | 26.3 | 11.5 | 26.5
COc1ccc(Cn2cc3c(c2)-c2oncc2CC3)cc1 | 2.4 | > 66.5 µM | 7.24 | 54.5 | 2.82 | 22.2 µM | 3.59 | 14.5 µM | 4.43 | > 92 µM | 3 | > 25.7 µM | 12.7 | > 100 µM | 16 | > 100 µM | 5.16 | > 90.7 | 12.3 | > 85.1
CS(=O)(=O)CSCSSCS(C)(=O)=O | – | > 95.5 µM | – | > 100 | – | > 82.9 µM | – | 38 µM | – | > 100 µM | – | > 100 µM | – | > 100 µM | – | > 100 µM | – | > 58.3 | – | > 100
COc1ccc(N2C(=O)[C@H]3CC(C)c4c([nH]c5ccccc45)[C@H]3C2=O)cc1 (some centres not stated) | – | 20 µM | – | 33.9 | – | 49.4 µM | – | 9.11 µM | – | 20.4 µM | – | 30.8 µM | – | > 95 µM | – | 38.3 µM | – | 83.8 | – | > 93.9
Cc1cc2c(cc1Cl)SC1=NN(C)C(N(C)C)N1S2(=O)=O (configuration not stated) | > 100 | > 100 µM | > 100 | > 100 | > 100 | > 100 µM | > 100 | > 100 µM | > 100 | > 100 µM | > 100 | > 100 µM | > 100 | > 100 µM | > 100 | > 100 µM | 98.1 | > 100 | > 100 | > 100
O=C(O)C1CCCCC1C(=O)O.[NH-]C1CCC1.[NH2-].[Pt+2] (configuration not stated) | 29.6 | > 100 µM | 18.6 | 38.6 | 5.48 | > 100 µM | 10.3 | 24.6 µM | 58 | > 100 µM | 16.1 | 36.2 µM | 26.5 | 84.8 µM | 18.9 | 42.8 µM | 19.4 | 50.3 | 15 | 36.6
CCC[n+]1cc2cc(OC)c(OC)cc2c2c1-c1cc3c(cc1C2)OCO3 | 3.03 | > 20.5 µM | 1.65 | 4.01 | 1.92 | 11.4 µM | 1.61 | 8.52 µM | 0.211 | 3.57 µM | 3.39 | 23.6 µM | 11.9 | 48 µM | 1.03 | 8.13 µM | 13.1 | 35.1 | 1.19 | 3.87
CC(=O)NC(CCCCNC(=O)NCCCl)C(=O)NCc1ccccc1 (configuration not stated) | – | > 100 µM | – | > 100 | – | > 100 µM | – | > 100 µM | – | > 100 µM | – | > 100 µM | – | > 100 µM | – | > 100 µM | – | > 100 | – | > 100
Cc1cc(S(=O)(=O)NC#N)c(S/C(=N\Nc2ccc([N+](=O)[O-])cc2)c2ccc(Cl)cc2)cc1Cl | 35.3 | 80.3 µM | 24.4 | 96.3 | 19.5 | > 100 µM | 15.2 | 30.7 µM | 48.2 | > 100 µM | 11.2 | 26 µM | 20.2 | 70.2 µM | 18.5 | 46.1 µM | 34 | > 100 | > 100 | > 100
NCCCCNc1ccc2c(=O)[nH][nH]c(=O)c2c1 | – | > 100 µM | – | > 100 | – | > 100 µM | – | > 100 µM | – | > 100 µM | – | > 100 µM | – | > 100 µM | – | > 100 µM | – | > 100 | – | > 100

From PubChem BioAssay (NCI)
